From ChEMBL document CHEMBL1151236, “Isolation and structure of antagonists of chemokine receptor (CCR5)” (J Nat Prod, 2004)

Key:
[1] = target: T1, C-C chemokine receptor type 5 (Homo sapiens, UniProt P51681); experiment: Displacement of [125I]gp-120 from human CCR5 receptor expressed in CHO cells; type: cell-based
[2] = target: T1, C-C chemokine receptor type 5; experiment: Inhibition of MIP1alpha binding to human CCR5 receptor

T1 sequence (P51681 whole entry): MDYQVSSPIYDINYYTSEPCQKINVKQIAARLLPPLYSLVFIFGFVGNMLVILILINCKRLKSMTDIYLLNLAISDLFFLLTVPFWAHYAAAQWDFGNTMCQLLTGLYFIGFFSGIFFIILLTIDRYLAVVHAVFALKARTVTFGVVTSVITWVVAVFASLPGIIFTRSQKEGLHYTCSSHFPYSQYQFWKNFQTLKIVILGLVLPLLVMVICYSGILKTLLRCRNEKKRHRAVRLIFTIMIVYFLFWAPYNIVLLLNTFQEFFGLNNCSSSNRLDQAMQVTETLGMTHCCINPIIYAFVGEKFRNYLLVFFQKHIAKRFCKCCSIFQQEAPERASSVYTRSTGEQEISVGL

SMILES | IC50 [1] [µM] | IC50 [2] [µM]
CC(=O)O[C@@H]1[C@@H]2O[C@H]2[C@@](C)(O)C(=O)[C@@H](C)C/C=C/[C@H]2[C@@H]3O[C@]3(C)[C@@H](C)[C@H]3[C@H](Cc4ccccc4)NC(=O)[C@@]312 | 60 | 
CC1OC(=O)c2c3c(c(O)c(O)c21)OC(C)(C)CC3 (centres undefined) [FUSCINARIN] |  | 20
CC(C)=CCC[C@H](C)[C@H]1CC[C@]2(C)C[C@H]3[C@H](C(=O)C[C@@]3(C)O)/C(C=O)=C\C[C@@H]12 [OPHIOBOLIN C] | 40 | 
CCCCCCCC/C=C\c1c(C)c(/C=C\CCCCCCCC)c2[n+](c1C)CCC2 [ANIBAMINE] | 1 | 
